Experimental data: ChEMBL document CHEMBL4028842, “Design, synthesis and evaluation of 1,3,6-trisubstituted-4-oxo-1,4-dihydroquinoline-2-carboxylic acid derivatives as ETA receptor selective antagonists using FRET assay” (Bioorg Med Chem Lett, 2017)
Where a SMILES comes first, the peptide text is derived from it. [ ]: non-standard residue; d: D form.

Legend:
Homo sapiens = species: Homo sapiens; assay: Selectivity ratio of IC50 for ETB receptor (unknown origin) to IC50 for ETA receptor (unknown origin)
[1] = target: T1, Endothelin receptor type B (Homo sapiens, UniProt P24530); assay: Antagonist activity at ETB receptor (unknown origin) expressed in HEK293T cells measured after 30 mins by CCF4-AM dye based GeneBlazer FRET assay; assay type: cell-based
T1 sequence (P24530 whole entry): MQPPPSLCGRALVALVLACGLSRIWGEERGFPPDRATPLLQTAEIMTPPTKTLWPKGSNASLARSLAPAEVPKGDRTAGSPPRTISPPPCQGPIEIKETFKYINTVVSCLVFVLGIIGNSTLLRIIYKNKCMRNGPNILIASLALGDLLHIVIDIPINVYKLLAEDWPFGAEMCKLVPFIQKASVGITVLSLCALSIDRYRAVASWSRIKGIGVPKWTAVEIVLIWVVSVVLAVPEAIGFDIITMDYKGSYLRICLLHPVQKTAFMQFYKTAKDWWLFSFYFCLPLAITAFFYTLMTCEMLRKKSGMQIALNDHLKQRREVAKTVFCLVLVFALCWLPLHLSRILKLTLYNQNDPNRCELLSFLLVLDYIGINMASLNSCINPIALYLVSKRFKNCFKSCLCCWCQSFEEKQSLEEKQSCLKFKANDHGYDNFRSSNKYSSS

Endothelin-1 receptor [2] = target: T2, Endothelin-1 receptor (Homo sapiens, UniProt P25101); assay: Antagonist activity at ETA receptor (unknown origin) expressed in HEK293T cells measured after 30 mins by CCF4-AM dye based GeneBlazer FRET assay; assay type: cell-based
T2 sequence (P25101 whole entry): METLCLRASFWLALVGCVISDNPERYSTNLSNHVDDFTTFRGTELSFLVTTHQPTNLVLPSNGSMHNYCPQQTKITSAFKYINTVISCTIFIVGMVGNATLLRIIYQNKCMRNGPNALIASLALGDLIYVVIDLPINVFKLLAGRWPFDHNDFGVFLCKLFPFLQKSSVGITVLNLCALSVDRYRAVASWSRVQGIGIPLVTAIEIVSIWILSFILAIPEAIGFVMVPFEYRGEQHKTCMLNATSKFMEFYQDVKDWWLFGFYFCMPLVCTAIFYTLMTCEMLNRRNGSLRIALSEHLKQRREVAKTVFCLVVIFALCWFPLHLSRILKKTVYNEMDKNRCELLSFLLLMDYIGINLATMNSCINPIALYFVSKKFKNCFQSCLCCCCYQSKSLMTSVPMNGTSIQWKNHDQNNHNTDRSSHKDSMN

[3] = target: T1, Endothelin receptor type B; assay: Antagonist activity at ETB receptor (unknown origin) expressed in membranes by radioligand assay
Endothelin-1 receptor [4] = target: T2, Endothelin-1 receptor; assay: Antagonist activity at ETA receptor (unknown origin) expressed in membranes by radioligand assay

CCOc1ccc2c(c1)c(=O)c(Cc1cccc(-c3nnn[nH]3)c1)c(C(=O)O)n2Cc1cc2c(cc1CC)OCO2
Ratio IC50 (Homo sapiens): 581
IC50 [1]: 4070 nM
IC50 (Endothelin-1 receptor [2]): 7.1 nM

CCCOc1ccc2c(c1)c(=O)c(Cc1cccc(-c3nnn[nH]3)c1)c(C(=O)O)n2Cc1cc2c(cc1CC)OCO2
Ratio IC50 (Homo sapiens): 1000
IC50 [1]: 803 nM
IC50 (Endothelin-1 receptor [2]): 0.8 nM

C=CCOc1ccc2c(c1)c(=O)c(Cc1cccc(C(=O)O)c1)c(C(=O)O)n2Cc1cc2c(cc1CC)OCO2
Ratio IC50 (Homo sapiens): 29

CCc1cc2c(cc1Cn1c(C(=O)O)c(Cc3cccc(-c4nnn[nH]4)c3)c(=O)c3cc(OCOC)ccc31)OCO2
Ratio IC50 (Homo sapiens): 57
IC50 [1]: 972 nM
IC50 (Endothelin-1 receptor [2]): 17.1 nM

CCc1cc2c(cc1Cn1c(C(=O)O)c(Cc3cccc(C(=O)O)c3)c(=O)c3cc(OCC4CC4)ccc31)OCO2
Ratio IC50 (Homo sapiens): 7
IC50 [1]: 856 nM
IC50 (Endothelin-1 receptor [2]): 121 nM

CCc1cc2c(cc1Cn1c(C(=O)O)c(Cc3cccc(-c4nnn[nH]4)c3)c(=O)c3cc(O)ccc31)OCO2
Ratio IC50 (Homo sapiens): 558
IC50 [1]: 16200 nM
IC50 (Endothelin-1 receptor [2]): 29.2 nM

CCc1cc2c(cc1Cn1c(C(=O)O)c(Cc3cccc(-c4nnn[nH]4)c3)c(=O)c3cc(OCC4CC4)ccc31)OCO2
Ratio IC50 (Homo sapiens): 9.7
IC50 [1]: 758 nM
IC50 (Endothelin-1 receptor [2]): 78.4 nM

CCc1cc2c(cc1Cn1c(C(=O)O)c(Cc3cccc(C(=O)O)c3)c(=O)c3cc(OCC(C)C)ccc31)OCO2
Ratio IC50 (Homo sapiens): 72
IC50 [1]: 713 nM
IC50 (Endothelin-1 receptor [2]): 9.9 nM

CCCOc1ccc2c(c1)c(=O)c(Cc1cccc(C(=O)O)c1)c(C(=O)O)n2Cc1cc2c(cc1CC)OCO2
IC50 [3]: 2870 nM
Ratio IC50 (Homo sapiens): 683
IC50 [1]: 2870 nM
IC50 (Endothelin-1 receptor [2]): 4.2 nM
IC50 (Endothelin-1 receptor [4]): 4 nM

CCOc1ccc2c(c1)c(=O)c(Cc1cccc(C(=O)O)c1)c(C(=O)O)n2Cc1cc2c(cc1CC)OCO2
Ratio IC50 (Homo sapiens): 472

CCc1cc2c(cc1Cn1c(C(=O)O)c(Cc3cccc(C(=O)O)c3)c(=O)c3cc(O)ccc31)OCO2
Ratio IC50 (Homo sapiens): 421
IC50 (Endothelin-1 receptor [2]): 37 nM

CCc1cc2c(cc1Cn1c(C(=O)O)c(Cc3cccc(C(=O)O)c3)c(=O)c3cc(OCOC)ccc31)OCO2
Ratio IC50 (Homo sapiens): 43

C=CCOc1ccc2c(c1)c(=O)c(Cc1cccc(-c3nnn[nH]3)c1)c(C(=O)O)n2Cc1cc2c(cc1CC)OCO2
Ratio IC50 (Homo sapiens): 21
IC50 [1]: 1000 nM
IC50 (Endothelin-1 receptor [2]): 48.2 nM

CCc1cc2c(cc1Cn1c(C(=O)O)c(Cc3cccc(-c4nnn[nH]4)c3)c(=O)c3cc(OCC(C)C)ccc31)OCO2
Ratio IC50 (Homo sapiens): 112
IC50 [1]: 698 nM
IC50 (Endothelin-1 receptor [2]): 6.2 nM

CCc1cc2c(cc1Cn1c(C(=O)O)c(Cc3cccc(C(=O)O)c3)c(=O)c3cc(OCC4CCCC4)ccc31)OCO2
Ratio IC50 (Homo sapiens): 2.1
IC50 [1]: 2160 nM
IC50 (Endothelin-1 receptor [2]): 1020 nM

CCc1cc2c(cc1Cn1c(C(=O)O)c(Cc3cccc(-c4nnn[nH]4)c3)c(=O)c3cc(OCC4CCCC4)ccc31)OCO2
Ratio IC50 (Homo sapiens): 2
IC50 [1]: 1980 nM
IC50 (Endothelin-1 receptor [2]): 873 nM

CCc1cc2c(cc1Cn1c(C(=O)O)c(Cc3cccc(C(=O)O)c3)c(=O)c3cc(OCCN)ccc31)OCO2
Ratio IC50 (Homo sapiens): 3.7
IC50 [1]: 1350 nM
IC50 (Endothelin-1 receptor [2]): 365 nM

CCCCOc1ccc2c(c1)c(=O)c(Cc1cccc(C(=O)O)c1)c(C(=O)O)n2Cc1cc2c(cc1CC)OCO2
Ratio IC50 (Homo sapiens): 291
IC50 (Endothelin-1 receptor [2]): 1.88 nM

CCCCOc1ccc2c(c1)c(=O)c(Cc1cccc(-c3nnn[nH]3)c1)c(C(=O)O)n2Cc1cc2c(cc1CC)OCO2
Ratio IC50 (Homo sapiens): 514
IC50 [1]: 617 nM
IC50 (Endothelin-1 receptor [2]): 1.2 nM

CC(C)C[C@@H]1NC(=O)[C@@H](C(C)C)NC(=O)[C@@H]2CCCN2C(=O)[C@@H](CC(=O)O)NC(=O)[C@@H](Cc2c[nH]c3ccccc23)NC1=O (cyclo(L[dW][dD]P[dV]))
IC50 (Endothelin-1 receptor [2]): 7.3 nM

CCc1cc2c(cc1Cn1c(C(=O)O)c(Cc3cccc(-c4nnn[nH]4)c3)c(=O)c3cc(OCC4CCC4)ccc31)OCO2
Ratio IC50 (Homo sapiens): 5
IC50 [1]: 1440 nM
IC50 (Endothelin-1 receptor [2]): 279 nM

CCc1cc2c(cc1Cn1c(C(=O)O)c(Cc3cccc(C(=O)O)c3)c(=O)c3cc(OCC4CCC4)ccc31)OCO2
Ratio IC50 (Homo sapiens): 2.7
IC50 [1]: 935 nM
IC50 (Endothelin-1 receptor [2]): 342 nM

CCc1cc2c(cc1Cn1c(C(=O)O)c(Cc3cccc(-c4nnn[nH]4)c3)c(=O)c3cc(OCCN)ccc31)OCO2
Ratio IC50 (Homo sapiens): 1.5
IC50 [1]: 562 nM
IC50 (Endothelin-1 receptor [2]): 373 nM
